Source: patent US4115541A (priority 1975, dated 1978)
Like-named read-outs stand apart in the source and are kept apart here.

How the values were obtained:
[1] = Localization in callous of three week-old tibial fractures in rabbits (Example 2); format: in vivo, albino rabbit; conditions: rabbits i.v.
Description: Adult New Zealand albino rabbits having an average weight of 3.8 kg were utilized. Strontium-85 was employed as a standard for comparison. […] Each dosage is contained in a volume of 1 ml.
The animals were sacrificed serially from 1 to 24 hours after injection and the activities in major organs were determined by counting multiple samples from each organ in a scintillation well counter (the technetium-99m counts were corrected for the Compton contributions from the strontium-85 activity in the technetium-99m energy window). Multiple samples were counted from the tibia, femur, spine and pelvic bones; the total activity in the skeleton was estimated by assuming the whole skeleton consisted of equal proportions by weight of tibia, spine, femur and pelvis and that the skeletal mass was 10% of the body weight. […] The whole liver and both kidneys were weighed and multiple samples from each were counted to measure the total activity in each organ.
In another series of experiments carried out as described above, localization of technetium from its tin-phosphonate complex was determined in the callous of three week-old fractures of tibia in albino rabbits, again in comparison with strontium-85. Comparative radioassay of technetium-99m administered as the pertechnetate was measured in the callous of tibial fractures in rabbits at one and four hours after administration.

[2] = for Blood, % dose/1% body weight / Bone(Avg), % dose/1% body weight / Femur, % dose/1% body weight / Kidneys, % Dose in Whole Organ / Kidneys, % dose/1% body weight / Liver, % Dose in Whole Organ / Liver, % dose/1% body weight / Marrow, % Dose in Whole Organ / Marrow, % dose/1% body weight / Muscle, % dose/1% body weight / One femur, % dose in whole organ / Pelvis, % dose/1% body weight / Spine, % dose/1% body weight / Tibia, % dose/1% body weight / Blood, % Dose in Whole Organ: rabbits i.v., ~1 mg/kg EHDP
[3] = rabbits, 2 Hrs.

## tin-1-hydroxy-ethane-1,1-diphosphonate [^99m Tc-EHDP]
[1]; 1 Hr.
  Callus, % dose/1% body weight: 24.7 % dose/1% body weight
[1]; 4 Hrs
  Callus, % dose/1% body weight: 28.9 % dose/1% body weight
[2]; at various times
  skeletal concentrations compared with 85Sr: similar
  soft tissue and blood concentrations compared with 85Sr: much lower than those for 85Sr
[2]; 1 Hr.
  Blood, % dose/1% body weight: 1.23 % dose/1% body weight
  Bone(Avg), % dose/1% body weight: 4.66 % dose/1% body weight
  Femur, % dose/1% body weight: 3.85 % dose/1% body weight
  Kidneys, % Dose in Whole Organ: 2.40 % dose
  Kidneys, % dose/1% body weight: 3.93 % dose/1% body weight
  Liver, % Dose in Whole Organ: 0.80 % dose
  Liver, % dose/1% body weight: 0.30 % dose/1% body weight
  Marrow, % Dose in Whole Organ: 0.70 % dose
  Marrow, % dose/1% body weight: 0.36 % dose/1% body weight
  Muscle, % dose/1% body weight: 0.15 % dose/1% body weight
  One femur, % dose in whole organ: 0.82 % dose
  Pelvis, % dose/1% body weight: 7.15 % dose/1% body weight
  Spine, % dose/1% body weight: 5.87 % dose/1% body weight
  Tibia, % dose/1% body weight: 2.17 % dose/1% body weight
[2]; 2 Hrs
  Blood, % dose/1% body weight: 0.37 % dose/1% body weight
  Bone(Avg), % dose/1% body weight: 4.82 % dose/1% body weight
  Femur, % dose/1% body weight: 3.94 % dose/1% body weight
  Kidneys, % dose/1% body weight: 2.72 % dose/1% body weight
  Liver, % Dose in Whole Organ: 0.42 % dose
  Liver, % dose/1% body weight: 0.18 % dose/1% body weight
  Marrow, % Dose in Whole Organ: 0.38 % dose
  Marrow, % dose/1% body weight: 0.17 % dose/1% body weight
  Muscle, % dose/1% body weight: 0.04 % dose/1% body weight
  One femur, % dose in whole organ: 0.84 % dose
  Pelvis, % dose/1% body weight: 7.40 % dose/1% body weight
  Spine, % dose/1% body weight: 5.44 % dose/1% body weight
  Tibia, % dose/1% body weight: 2.49 % dose/1% body weight
[2]; 4 Hrs
  Blood, % Dose in Whole Organ: 0.89 % dose
  Bone(Avg), % dose/1% body weight: 4.74 % dose/1% body weight
  Femur, % dose/1% body weight: 3.86 % dose/1% body weight
  Kidneys, % Dose in Whole Organ: 0.94 % dose
  Kidneys, % dose/1% body weight: 1.95 % dose/1% body weight
  Liver, % Dose in Whole Organ: 0.28 % dose
  Marrow, % Dose in Whole Organ: 0.83 % dose
  Marrow, % dose/1% body weight: 0.38 % dose/1% body weight
  One femur, % dose in whole organ: 0.81 % dose
  Pelvis, % dose/1% body weight: 7.41 % dose/1% body weight
  Spine, % dose/1% body weight: 5.52 % dose/1% body weight
  Tibia, % dose/1% body weight: 2.16 % dose/1% body weight
[2]; 24 Hrs
  Blood, % Dose in Whole Organ: 0.49 % dose
  Blood, % dose/1% body weight: 0.07 % dose/1% body weight
  Bone(Avg), % dose/1% body weight: 4.14 % dose/1% body weight
  Femur, % dose/1% body weight: 3.42 % dose/1% body weight
  Kidneys, % Dose in Whole Organ: 0.63 % dose
  Kidneys, % dose/1% body weight: 1.29 % dose/1% body weight
  Liver, % Dose in Whole Organ: 0.43 % dose
  Liver, % dose/1% body weight: 0.28 % dose/1% body weight
  Marrow, % Dose in Whole Organ: 0.42 % dose
  Marrow, % dose/1% body weight: 0.19 % dose/1% body weight
  One femur, % dose in whole organ: 0.76 % dose
  Pelvis, % dose/1% body weight: 5.70 % dose/1% body weight
  Spine, % dose/1% body weight: 5.30 % dose/1% body weight
  Tibia, % dose/1% body weight: 2.10 % dose/1% body weight
[3]; EHDP 0.01 mg/kg
  Blood, % Dose in Whole Organ: 0.99 % Dose
  Blood, % Dose/1%-body weight: 0.142 % Dose/1%-body weight
  Femur, % Dose/1%-body weight: 7.49 % Dose/1%-body weight
  Kidney, % Dose/1%-body weight: 1.55 % Dose/1%-body weight
  Kidneys, % Dose in Whole Organ: 0.81 % Dose
  Liver, % Dose in Whole Organ: 0.53 % Dose
  Liver, % Dose/1%-body weight: 0.154 % Dose/1%-body weight
  Marrow, % Dose in Whole Organ: 0.34 % Dose
  Marrow, % Dose/1%-body weight: 0.152 % Dose/1%-body weight
  Muscle, % Dose in Whole Organ: 0.78 % Dose
  One femur, % dose in whole organ: 2.20 % Dose
  Tibia, % Dose/1%-body weight: 8.22 % Dose/1%-body weight
[3]; EHDP 0.05 mg/kg
  Blood, % Dose/1%-body weight: 0.193 % Dose/1%-body weight
  Femur, % Dose/1%-body weight: 8.38 % Dose/1%-body weight
  Kidney, % Dose/1%-body weight: 3.83 % Dose/1%-body weight
  Kidneys, % Dose in Whole Organ: 2.9 % Dose
  Liver, % Dose/1%-body weight: 0.432 % Dose/1%-body weight
  Marrow, % Dose in Whole Organ: 0.78 % Dose
  Marrow, % Dose/1%-body weight: 0.353 % Dose/1%-body weight
  Tibia, % Dose/1%-body weight: 8.68 % Dose/1%-body weight
[3]; EHDP 0.1 mg/kg
  Blood, % Dose/1%-body weight: 0.146 % Dose/1%-body weight
  Femur, % Dose/1%-body weight: 8.97 % Dose/1%-body weight
  Kidney, % Dose/1%-body weight: 1.09 % Dose/1%-body weight
  Kidneys, % Dose in Whole Organ: 0.63 % Dose
  Liver, % Dose in Whole Organ: 0.19 % Dose
  Liver, % Dose/1%-body weight: 0.068 % Dose/1%-body weight
  Marrow, % Dose in Whole Organ: 0.20 % Dose
  Marrow, % Dose/1%-body weight: 0.093 % Dose/1%-body weight
  Muscle, % Dose in Whole Organ: 0.98 % Dose
  Tibia, % Dose/1%-body weight: 9.63 % Dose/1%-body weight
[3]; EHDP 0.5 mg/kg
  Blood, % Dose/1%-body weight: 0.215 % Dose/1%-body weight
  Kidney, % Dose/1%-body weight: 2.23 % Dose/1%-body weight
  Kidneys, % Dose in Whole Organ: 1.10 % Dose
  Liver, % Dose in Whole Organ: 0.260 % Dose
  Liver, % Dose/1%-body weight: 0.086 % Dose/1%-body weight
  Marrow, % Dose in Whole Organ: 0.19 % Dose
  Marrow, % Dose/1%-body weight: 0.088 % Dose/1%-body weight
